Measurements taken from patent US7943314B2, “Methods of detecting viability-associated molecules” (ISEAO Technologies Limited, priority 2005, dated 2011).

Assays:
[1] = test system: methicillin resistant strain of Staphylococcus aureus (MRSA clinical isolate); test: ATP assay (ligase/quantitative PCR) of Staphylococcus aureus susceptibility to antibiotic, MRSA strain; assay type: cell-based; conditions: grown 3 hours at 37° C. with 60 μg/ml oxacillin; FIG. 8
Experimental: (§1) • 1. A bacterial culture of a clinical isolate of a MRSA and antibiotic sensitive strain of Staphylococcus aureus strain were prepared in Nutrient media (Lab M, UK) and grown to stationary phase at 37° C. overnight. • 2. The following day, a hundred-fold dilution of the bacterial cultures were prepared in the same media with 1 μl alkaline phosphatase (10 units, New England Biolabs) with and without 60 μg/ml oxacillin and grown for 3 hours at 37° C. • 3. For the quantitation of ATP, 10 μl of each 0 (10 μl culture removed and treated at time 0 min) and 3 hour culture were added to 2.5 μl of 1M NaOH, 1% (v/v) Triton X-100 and incubated for 5 min before neutralisation with 25 μl of 0.1M HCL. 4. 100 μl of ligase buffer was then added followed by 5 μl ligase/DNA substrate paramagnetic beads (prepared as described in Example 2 above). • 5. After incubation at 8° C. for 60 min, the beads were collected using a magnet and resuspended in 20 μl ligase buffer. • 6. After heating at 95° C. for 5 min, 2 μl of the eluted ligated product was quantitated by PCR. • 7. The quantitative PCR was performed as described previously. Results
There is growth and an increase of ATP observed after 3 hr in the absence of antibiotic compared to the zero time point. […] The organism is not sensitive to this antibiotic and continues to grow and produce ATP in the presence of this antibiotic.

[2] = test system: methicillin sensitive strain of Staphylococcus aureus (clinical isolate); test: ATP assay (ligase/quantitative PCR) of Staphylococcus aureus susceptibility to antibiotic, sensitive strain; assay type: cell-based; conditions: grown 3 hours at 37° C. with 60 μg/ml oxacillin; FIG. 7
Experimental: as §1
There is growth and an increase of ATP observed after 3 hr compared to the zero time point. This growth and increase in ATP is not observed when the organism is grown in the presence of oxacillin. […]

For Cc1onc(-c2ccccc2)c1C(=O)N[C@@H]1C(=O)N2[C@@H]1SC(C)(C)[C@@H]2C(=O)O [oxacillin], the “growth and increase in ATP after 3 hr compared to the zero time point” value [1] was “reduced but not abrogated” and the “growth and increase in ATP after 3 hr compared to the zero time point” value [2] was “not observed”.
